Experimental data taken from patent publication US20080009523A1, “New Pyridine Analogues IV” (ASTRAZENECA AB, priority 2006, published 2008).

Molecular target: T1, P2Y12 receptor (Homo sapiens, UniProt Q9H244)
T1 construct: expressed in transfected cells; host or cells: CHO cells (membrane preparation)
Assay: Functional inhibition of 2-Me-S-ADP induced P2Y12 signalling (35S-GTPγS, membranes from P2Y12 transfected CHO-cells)
Assay type: biochemical
Settings: EC80 concentration of agonist 2-methyl-thio-adenosine diphosphate, 30° C., 45 min
Protocol: Functional inhibition of the P2Y12 receptor can be measured by in vitro assays using cell membranes from P2Y12 transfected CHO-cells, the methodology is indicated below.
Functional inhibition of 2-Me-S-ADP induced P2Y12 signalling: 5 μg of membranes were diluted in 200 μl of 200 mM NaCl, 1 mM MgCl2, 50 mM HEPES (pH 7.4), 0.01% BSA, 30 μg/ml saponin and 10 μM GDP. To this was added an EC80 concentration of agonist (2-methyl-thio-adenosine diphosphate), the required concentration of test compound and 0.1 μCi ^35S-GTPγS. The reaction was allowed to proceed at 30° C. for 45 min. Samples were then transferred on to GF/B filters using a cell harvester and washed with wash buffer (50 mM Tris (pH 7.4), 5 mM MgCl2, 50 mM NaCl). Filters were then covered with scintilant and counted for the amount of ^35S-GTPγS retained by the filter. Maximum activity was that determined in the presence of the agonist and minimum activity in the absence of the agonist following subtraction of the value determined for non-specific activity. The effect of compounds at various concentrations was plotted according to the equation […]
y=A+((B−A)/(1+((C/x)̂D)))
A is the bottom plateau of the curve i.e. the final minimum y value
B is the top of the plateau of the curve i.e. the final maximum y value
C is the x value at the middle of the curve. This represents the log EC50 value when A+B=100 […]

T1 sequence (Q9H244 whole entry): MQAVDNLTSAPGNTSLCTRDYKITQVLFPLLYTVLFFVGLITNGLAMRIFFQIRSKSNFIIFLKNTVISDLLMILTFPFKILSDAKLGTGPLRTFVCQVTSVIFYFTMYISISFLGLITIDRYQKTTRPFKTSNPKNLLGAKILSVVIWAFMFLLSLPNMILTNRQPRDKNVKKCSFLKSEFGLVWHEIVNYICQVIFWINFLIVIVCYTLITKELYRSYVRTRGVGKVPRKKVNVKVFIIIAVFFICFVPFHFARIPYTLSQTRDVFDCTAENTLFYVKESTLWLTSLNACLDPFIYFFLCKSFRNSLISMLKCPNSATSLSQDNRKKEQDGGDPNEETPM

IC50 [nM]	SMILES
640	CCOC(=O)c1cc(C#N)c(N2CCC(S(=O)(=O)NS(=O)(=O)Cc3ccccc3)CC2)nc1C [Example 2, ethyl 6-(4-{[(benzylsulfonyl)amino]sulfonyl}piperidin-1-yl)-5-cyano-2-methylnicotinate]
300	CCOC(=O)c1cc(C#N)c(N2CCC(S(=O)(=O)NC(=O)Cc3ccc(F)cc3)CC2)nc1C [Example 4, Ethyl 5-cyano-6-[4-({[(4-fluorophenyl)acetyl]amino}sulfonyl)piperidin-1-yl]-2-methylnicotinate]
